Where two headings read alike, the source gives them in different places.
Experiments:
Format in all cases: cell-based
[1] = system: NCI-H522 lung cancer cells; experiment: antitumor activity, sulforhodamine B cell growth assay, NCI-H522; settings: NCI-H522, drug exposure 48 hours, read-out: GI50 value: 50% growth inhibitory concentration
Description: (§1) The THIQ compound containing a macrocyclic structure of the present invention was administered to various cancer cell lines, and the antitumor activity (Go value) was observed. Specifically, verification was performed according to the literature (Yamori, T.; Matsunaga, A.; Sato, S.; Yamazaki, K.; Komi, A.; Ishizu, K. et al. Cancer Res. 1999, 59, 4042) by the following procedure.
(§2) Cells were plated at an appropriate density in a 96-well plate in RPMI 1640 together with 5% fetal bovine serum, and adhered overnight. The cells were exposed to a drug for 48 hours. Then, according to the sulforhodamine B assay described by Skehan et al (Skehan P., Storeng R., Scudiero D., Monks A., McMahon J., Vistica D., Warren J. T., Bokesch H., Kenney S., Boyd M. R. J Natl. Cancer Inst, 1990, 82, 1107-1112), the cell growth rate was measured. The absorbance of the control well (C) and the test well (T) was measured at 525 nm. In addition, the time at which the drug was added was set as time 0, and the absorbance for the test well (T0) was measured. Using these measured values, the cell growth inhibitory effect (% growth=PG) was calculated by the following formula at each concentration of the drug.
(§3) (T<T0): PG=100×[(T−T0)/T]
(§4) The PG values determined above for each cell line were plotted against the concentration (logarithm) on a semi-logarithmic graph, and summarized for each visceral cancer. Concentrations at which the dose-response curve of each cell line crossed the horizontal line of PG=50%, 0%, or −50% were calculated. These concentrations were defined as Log GI50, Log TGI, and Log LC50. Actually, using two data points of the drug concentration before and after crossing each horizontal line, the drug concentration (logarithmic value) at the intersection of the straight line connecting the two points and the horizontal line for each PG was calculated.

[2] = system: PC-3 prostate cancer cells; experiment: antitumor activity, sulforhodamine B cell growth assay, PC-3; settings: PC-3, drug exposure 48 hours; read-out: GI50 value: 50% growth inhibitory concentration
Description: as §1, §2, §3, §4

[3] = system: HBC-4 breast cancer cells; experiment: antitumor activity, sulforhodamine B cell growth assay, HBC-4; settings: HBC-4, drug exposure 48 hours, read-out: GI50 value: 50% growth inhibitory concentration
Description: as §1, §2, §3, §4

[4] = system: BSY-1 breast cancer cells; experiment: antitumor activity, sulforhodamine B cell growth assay, BSY-1; settings: BSY-1, drug exposure 48 hours; read-out: GI50 value: 50% growth inhibitory concentration
Description: as §1, §2, §3, §4

[5] = system: OVCAR-8 cancer cells; experiment: antitumor activity, sulforhodamine B cell growth assay, OVCAR-8; settings: OVCAR-8, drug exposure 48 hours, read-out: GI50 value: 50% growth inhibitory concentration
Description: as §1, §2, §3, §4

[6] = system: OVCAR-3 cancer cells; experiment: antitumor activity, sulforhodamine B cell growth assay, OVCAR-3; settings: OVCAR-3, drug exposure 48 hours, read-out: GI50 value: 50% growth inhibitory concentration
Description: as §1, §2, §3, §4

[7] = system: OVCAR-4 cancer cells; experiment: antitumor activity, sulforhodamine B cell growth assay, OVCAR-4; settings: OVCAR-4, drug exposure 48 hours, read-out: GI50 value: 50% growth inhibitory concentration
Description: as §1, §2, §3, §4

[8] = system: KM-12 colorectal cancer cells; experiment: antitumor activity, sulforhodamine B cell growth assay, KM-12; settings: KM-12, drug exposure 48 hours, read-out: GI50 value: 50% growth inhibitory concentration
Description: as §1, §2, §3, §4

[9] = system: MKN-B gastric cancer cells; experiment: antitumor activity, sulforhodamine B cell growth assay, MKN-B; settings: MKN-B, drug exposure 48 hours; read-out: GI50 value: 50% growth inhibitory concentration
Description: as §1, §2, §3, §4

[10] = system: SF-268 central nervous system cancer cells; experiment: antitumor activity, sulforhodamine B cell growth assay, SF-268; settings: SF-268, drug exposure 48 hours, read-out: GI50 value: 50% growth inhibitory concentration
Description: as §1, §2, §3, §4

[11] = system: DU-145 prostate cancer cells; experiment: antitumor activity, sulforhodamine B cell growth assay, DU-145; settings: DU-145, drug exposure 48 hours, read-out: GI50 value: 50% growth inhibitory concentration
Description: as §1, §2, §3, §4

[12] = system: DMS114 lung cancer cells; experiment: antitumor activity, sulforhodamine B cell growth assay, DMS114; settings: DMS114, drug exposure 48 hours, read-out: GI50 value: 50% growth inhibitory concentration
Description: as §1, §2, §3, §4

[13] = system: NCI-H23 lung cancer cells; experiment: antitumor activity, sulforhodamine B cell growth assay, NCI-H23; settings: NCI-H23, drug exposure 48 hours, read-out: GI50 value: 50% growth inhibitory concentration
Description: as §1, §2, §3, §4

[14] = system: MKN74 gastric cancer cells; experiment: antitumor activity, sulforhodamine B cell growth assay, MKN74; settings: MKN74, drug exposure 48 hours, read-out: GI50 value: 50% growth inhibitory concentration
Description: as §1, §2, §3, §4

[15] = system: OVCAR-5 cervical cancer cells; experiment: antitumor activity, sulforhodamine B cell growth assay, OVCAR-5; settings: OVCAR-5, drug exposure 48 hours, read-out: GI50 value: 50% growth inhibitory concentration
Description: as §1, §2, §3, §4

[16] = system: DMS273 lung cancer cells; experiment: antitumor activity, sulforhodamine B cell growth assay, DMS273; settings: DMS273, drug exposure 48 hours, read-out: GI50 value: 50% growth inhibitory concentration
Description: as §1, §2, §3, §4

[17] = system: A549 lung cancer cells; experiment: antitumor activity, sulforhodamine B cell growth assay, A549; settings: A549, drug exposure 48 hours, read-out: GI50 value: 50% growth inhibitory concentration
Description: as §1, §2, §3, §4

[18] = system: MKN45 gastric cancer cells; experiment: antitumor activity, sulforhodamine B cell growth assay, MKN45; settings: MKN45, drug exposure 48 hours, read-out: GI50 value: 50% growth inhibitory concentration
Description: as §1, §2, §3, §4

[19] = system: HCT-15 colorectal cancer cells; experiment: antitumor activity, sulforhodamine B cell growth assay, HCT-15; settings: HCT-15, drug exposure 48 hours, read-out: GI50 value: 50% growth inhibitory concentration
Description: as §1, §2, §3, §4

[20] = system: MDA-MB-231 breast cancer cells; experiment: antitumor activity, sulforhodamine B cell growth assay, MDA-MB-231; settings: MDA-MB-231, drug exposure 48 hours, read-out: GI50 value: 50% growth inhibitory concentration
Description: as §1, §2, §3, §4

[21] = system: SF-295 central nervous system cancer cells; experiment: antitumor activity, sulforhodamine B cell growth assay, SF-295; settings: SF-295, drug exposure 48 hours, read-out: GI50 value: 50% growth inhibitory concentration
Description: as §1, §2, §3, §4

[22] = system: U251 central nervous system cancer cells; experiment: antitumor activity, sulforhodamine B cell growth assay, U251; settings: U251, drug exposure 48 hours, read-out: GI50 value: 50% growth inhibitory concentration
Description: as §1, §2, §3, §4

`C#CCN1C/C=C/C(=C)COc2c(C)c3c(c4c2C[C@H]2[C@H]5c6c(cc(C)c(OC)c6O)C[C@@H]([C@H](C#N)N2C4CNC(=O)[C@@H]1C)N5C)OCO3` [Compound 35] showed a GI50 ([1]; Homo sapiens) of 1.1 nM, a GI50 [2] of 3.3 nM and a GI50 ([3]; HBC4) of 2.2 nM. It also gave a GI50 [4] of 1.3 nM, a GI50 ([5]; Homo sapiens) of 3.1 nM and a GI50 ([6]; Homo sapiens) of 3.2 nM. For the same molecule, the GI50 ([7]; Homo sapiens) was 3.6 nM, the GI50 ([8]; Homo sapiens, KM12) was 3.8 nM and the GI50 [9] was 3.5 nM. The GI50 ([10]; Homo sapiens) was 3.3 nM, the GI50 ([11]; Homo sapiens) was 3.8 nM and the GI50 ([12]; Homo sapiens, DMS-114) was 1.2 nM. The GI50 ([13]; Homo sapiens) was 3.5 nM, the GI50 ([14]; Homo sapiens, MKN-74) was 4.5 nM and the GI50 ([15]; Homo sapiens) was 3.3 nM. For the same molecule, the GI50 ([16]; Homo sapiens, DMS-273) was 2.5 nM, the GI50 ([17]; Homo sapiens) was 7.2 nM and the GI50 ([18]; Homo sapiens, MKN-45) was 2.7 nM. For the same molecule, the GI50 ([19]; Homo sapiens) was 4.5 nM, the GI50 ([20]; Homo sapiens) was 2.7 nM and the GI50 ([21]; Homo sapiens) was 3.8 nM. For the same molecule, the GI50 ([22]; Homo sapiens, U-251) was 2.5 nM.
Work on `COC1=C(C)C(=O)C2=C(C1=O)[C@H](CNC(=O)[C@H](C)N)N1C(C2)[C@H]2c3c(cc(C)c(OC)c3O)C[C@@H]([C@@H]1C#N)N2C` (stereo partly shown) [Cyanosafracin B, reference compound] yielded a GI50 [1] of 43 nM, a GI50 [2] of 290 nM and a GI50 [3] of 59 nM. It also gave a GI50 [4] of 34 nM, a GI50 [5] of 290 nM and a GI50 [6] of 130 nM. The GI50 [7] was 290 nM, the GI50 [8] was 530 nM and the GI50 [9] was 170 nM. It also gave a GI50 [10] of 370 nM, a GI50 [11] of 490 nM and a GI50 ([12]; listed as drawing 116) of 35 nM. The GI50 ([12]; listed as drawing 148) was 38 nM, the GI50 [13] was 290 nM and the GI50 [14] was 310 nM. It also gave a GI50 [15] of 390 nM, a GI50 [16] of 270 nM and a GI50 [17] of 1600 nM. For the same molecule, the GI50 [18] was 300 nM, the GI50 [19] was 390 nM and the GI50 [20] was 130 nM. It also gave a GI50 [21] of 500 nM and a GI50 [22] of 370 nM.
With `COc1c(C)cc2c(c1O)C1C3Cc4c5c(C)c6c(c4C(CNC(=O)C(C)NCC=CCO5)N3C(C#N)C(C2)N1C)OCO6` (stereo not shown) [Compound 42] the GI50 [1] was < 10 nM, the GI50 [2] was 40 nM and the GI50 [3] was < 10 nM. The GI50 [4] was < 10 nM, the GI50 [5] was 34 nM and the GI50 [6] was 15 nM. It also gave a GI50 [7] of 55 nM, a GI50 [8] of 19 nM and a GI50 [9] of 25 nM. For the same molecule, the GI50 [10] was 27 nM, the GI50 [11] was 58 nM and the GI50 [12] was < 10 nM. It also gave a GI50 [13] of 31 nM, a GI50 [14] of 35 nM and a GI50 [15] of 47 nM. For the same molecule, the GI50 [16] was 16 nM, the GI50 [17] was 110 nM and the GI50 [18] was 16 nM. For the same molecule, the GI50 [19] was 47 nM, the GI50 [20] was < 10 nM and the GI50 [21] was 38 nM. For the same molecule, the GI50 [22] was 13 nM.

Source: patent US20240197726A1, “NOVEL TETRAHYDROISOQUINOLINE ALKALOID COMPOUND CONTAINING MACROCYCLE” (THE UNIVERSITY OF TOKYO, priority 2021, published 2024)
